Test results published in BindingDB's records for patent US11649233 (Nanjing Transthera Biosciences, 2023).

Target: T1, Amine oxidase [copper-containing] 3 (Homo sapiens, UniProt Q16853)
T1 sequence (Q16853 whole entry): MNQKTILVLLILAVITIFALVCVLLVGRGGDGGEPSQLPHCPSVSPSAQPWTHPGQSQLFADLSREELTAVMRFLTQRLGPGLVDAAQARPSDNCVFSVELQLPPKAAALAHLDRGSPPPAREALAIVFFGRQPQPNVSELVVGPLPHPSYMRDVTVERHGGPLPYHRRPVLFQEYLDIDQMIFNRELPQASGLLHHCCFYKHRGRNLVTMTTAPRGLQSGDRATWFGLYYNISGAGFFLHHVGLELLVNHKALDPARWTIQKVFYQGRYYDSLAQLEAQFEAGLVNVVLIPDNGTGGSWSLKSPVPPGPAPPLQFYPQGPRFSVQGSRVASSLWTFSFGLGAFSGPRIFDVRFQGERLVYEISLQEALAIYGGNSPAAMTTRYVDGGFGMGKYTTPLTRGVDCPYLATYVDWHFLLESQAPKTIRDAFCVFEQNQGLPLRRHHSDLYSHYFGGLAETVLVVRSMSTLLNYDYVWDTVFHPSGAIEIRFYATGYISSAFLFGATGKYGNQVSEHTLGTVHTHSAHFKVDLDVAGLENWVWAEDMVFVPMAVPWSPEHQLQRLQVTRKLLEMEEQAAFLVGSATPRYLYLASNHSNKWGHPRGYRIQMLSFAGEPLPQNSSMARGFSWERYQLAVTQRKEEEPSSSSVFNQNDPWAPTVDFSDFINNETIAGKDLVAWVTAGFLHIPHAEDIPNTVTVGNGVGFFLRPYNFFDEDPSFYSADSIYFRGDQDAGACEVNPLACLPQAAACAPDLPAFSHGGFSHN
Experiment: Inhibition Activity of the Compound on rhVAP-1 and MAO-A/B
Description: Test substances: the compounds of the present invention shown in Table 1 and prepared according to the methods of the examples 1. Inhibition Activity of the Compounds on the rhVAP-1 Enzyme (1) Instrument, consumable and reagent Multifunctional microplate reader (MD, FlexStation 3), black bottom-impermeable 96-well plate (Corning), rhVAP-1 (PeproTech) (2) Preparation of Compound Concentration Gradient Solutions An appropriate amount of the test compound was dissolved in DMSO to 10 mM and stored. Before the experiment, an appropriate amount of 10 mM test compound mother liquor was diluted to 10 μM solution with DMSO. Then 3-fold gradient dilution with DMSO was performed, and 10 concentration gradients were formed.(3) Preparation of Enzyme Solutions. An appropriate amount of protein diluent was added to the rhVAP-1 powder to obtain 1 mg/mL of the mother liquor for storage. […] Then 50 μL of 2×substrate mixed solution was added to each well, and immediately the detection was performed with the microplate reader in a condition of an exciting light at 565 nm, an emitting light at 590 nm, the fluorescence intensity for detecting each well of 5 minutes/run, and a total detection time of 25 minutes.

Structure (SMILES): CC(C)N1CCc2cc(OC/C(=C/F)CN)ccc2C1=O [US11649233, Compound 4]
- IC50: 59 nM
